Data published in PubChem BioAssay AID1259407 (Chemical Carcinogenesis Research Information System (CCRIS), 2018).
The source made the active and inactive calls. How the calls were made is not given here.

Test system: CCRIS mutagenicity, Ames/micronucleus/aberration tests
Test: CCRIS mutagenicity studies
[1] = Test System: AMES SALMONELLA TYPHIMURIUM, Strain/Indicator: TA98, Metabolic Activation: NONE, Method: STANDARD PLATE
[2] = Test System: AMES SALMONELLA TYPHIMURIUM, Strain/Indicator: TA98, Metabolic Activation: RAT, LIVER, S-9, AROCLOR 1254, Method: STANDARD PLATE
[3] = Test System: AMES SALMONELLA TYPHIMURIUM, Strain/Indicator: TA100, Metabolic Activation: NONE, Method: STANDARD PLATE
[4] = Test System: AMES SALMONELLA TYPHIMURIUM, Strain/Indicator: TA100, Metabolic Activation: RAT, LIVER, S-9, AROCLOR 1254, Method: STANDARD PLATE
[5] = Test System: AMES SALMONELLA TYPHIMURIUM, Strain/Indicator: TA1535, Metabolic Activation: NONE, Method: STANDARD PLATE
[6] = Test System: AMES SALMONELLA TYPHIMURIUM, Strain/Indicator: TA1535, Metabolic Activation: RAT, LIVER, S-9, AROCLOR 1254, Method: STANDARD PLATE
[7] = Test System: AMES SALMONELLA TYPHIMURIUM, Strain/Indicator: TA1537, Metabolic Activation: NONE, Method: STANDARD PLATE
[8] = Test System: AMES SALMONELLA TYPHIMURIUM, Strain/Indicator: TA1537, Metabolic Activation: RAT, LIVER, S-9, AROCLOR 1254, Method: STANDARD PLATE
[9] = Test System: AMES SALMONELLA TYPHIMURIUM, Strain/Indicator: TA1538, Metabolic Activation: NONE, Method: STANDARD PLATE
[10] = Test System: AMES SALMONELLA TYPHIMURIUM, Strain/Indicator: TA1538, Metabolic Activation: RAT, LIVER, S-9, AROCLOR 1254, Method: STANDARD PLATE

CC(C)c1c(C(=O)Nc2ccccc2)c(-c2ccccc2)c(-c2ccc(F)cc2)n1CC[C@@H](O)C[C@@H](O)CC(=O)O
mutagenic call [1]: inactive; negative | mutagenic call [2]: inactive; negative | mutagenic call [3]: inactive; negative | mutagenic call [4]: inactive; negative | mutagenic call [5]: inactive; negative | mutagenic call [6]: inactive; negative | mutagenic call [7]: inactive; negative | mutagenic call [8]: inactive; negative | mutagenic call [9]: inactive; negative | mutagenic call [10]: inactive; negative | mutagenic call (Test System: CHINESE HAMSTER V-79, Strain/Indicator: V-79 (HGPRT)/6-THIOGUANINE, Metabolic Activation: NONE): inactive; negative | mutagenic call (Test System: CHINESE HAMSTER V-79, Strain/Indicator: V-79 (HGPRT)/6-THIOGUANINE, Metabolic Activation: RAT, LIVER, S-9, AROCLOR 1254): inactive; negative | mutagenic call (Test System: E. COLI, Strain/Indicator: WP2 UVRA, Metabolic Activation: NONE, Method: STANDARD PLATE): inactive; negative | mutagenic call (Test System: E. COLI, Strain/Indicator: WP2 UVRA, Metabolic Activation: RAT, LIVER, S-9, AROCLOR 1254, Method: STANDARD PLATE): inactive; negative

C=C(C)C(=O)OCCOC(=O)C(=C)C
mutagenic call (Test System: AMES SALMONELLA TYPHIMURIUM, Strain/Indicator: TA98, Metabolic Activation: HAMSTER, LIVER, S-9, AROCLOR 1254, Method: STANDARD PLATE): inactive; negative | mutagenic call [1]: inactive; negative | mutagenic call (Test System: AMES SALMONELLA TYPHIMURIUM, Strain/Indicator: TA98, Metabolic Activation: RAT, LIVER, AROCLOR 1254, Method: STANDARD PLATE): inactive; negative | mutagenic call [2]: inactive; negative | mutagenic call (Test System: AMES SALMONELLA TYPHIMURIUM, Strain/Indicator: TA98, Metabolic Activation: RAT, LIVER, S-9, SODIUM PHENOBARBITAL, Method: STANDARD PLATE): inactive; negative | mutagenic call (Test System: AMES SALMONELLA TYPHIMURIUM, Strain/Indicator: TA100, Metabolic Activation: HAMSTER, LIVER, S-9, AROCLOR 1254, Method: STANDARD PLATE): inactive; negative | mutagenic call [3]: inactive; negative | mutagenic call [4]: inactive; negative | mutagenic call (Test System: AMES SALMONELLA TYPHIMURIUM, Strain/Indicator: TA100, Metabolic Activation: RAT, LIVER, S-9, SODIUM PHENOBARBITAL, Method: STANDARD PLATE): inactive; negative | mutagenic call (Test System: AMES SALMONELLA TYPHIMURIUM, Strain/Indicator: TA1535, Metabolic Activation: HAMSTER, LIVER, S-9, AROCLOR 1254, Method: STANDARD PLATE): inactive; negative | mutagenic call [5]: inactive; negative | mutagenic call [6]: inactive; negative | mutagenic call (Test System: AMES SALMONELLA TYPHIMURIUM, Strain/Indicator: TA1535, Metabolic Activation: RAT, LIVER, S-9, SODIUM PHENOBARBITAL, Method: STANDARD PLATE): inactive; negative | mutagenic call (Test System: AMES SALMONELLA TYPHIMURIUM, Strain/Indicator: TA1537, Metabolic Activation: HAMSTER, LIVER, S-9, AROCLOR 1254, Method: STANDARD PLATE): inactive; negative | mutagenic call [7]: inactive; negative | mutagenic call [8]: inactive; negative | mutagenic call (Test System: AMES SALMONELLA TYPHIMURIUM, Strain/Indicator: TA1537, Metabolic Activation: RAT, LIVER, S-9, SODIUM PHENOBARBITAL, Method: STANDARD PLATE): inactive; negative | mutagenic call [9]: inactive; negative | mutagenic call [10]: inactive; negative | mutagenic call (Test System: AMES SALMONELLA TYPHIMURIUM, Strain/Indicator: TA1538, Metabolic Activation: RAT, LIVER, S-9, SODIUM PHENOBARBITAL, Method: STANDARD PLATE): inactive; negative | mutagenic call (Test System: Mouse lymphoma, Strain/Indicator: L5178Y (tk+/tk-), Metabolic Activation: Rat, Liver, S-9, Aroclor 1254, Method: Suspension/plate): active; positive

Cc1ccc(S(=O)(=O)NC2CCCCC2)cc1
mutagenic call (Test System: AMES SALMONELLA TYPHIMURIUM, Strain/Indicator: TA97, Metabolic Activation: HAMSTER, LIVER, S-9, AROCLOR 1254 (10 OR 30%), Method: PREINCUBATION): inactive; negative | mutagenic call (Test System: AMES SALMONELLA TYPHIMURIUM, Strain/Indicator: TA97, Metabolic Activation: NONE, Method: PREINCUBATION): inactive; negative | mutagenic call (Test System: AMES SALMONELLA TYPHIMURIUM, Strain/Indicator: TA97, Metabolic Activation: RAT, LIVER, S-9, AROCLOR 1254 (10 OR 30%), Method: PREINCUBATION): inactive; negative | mutagenic call (Test System: AMES SALMONELLA TYPHIMURIUM, Strain/Indicator: TA98, Metabolic Activation: HAMSTER, LIVER, S-9, AROCLOR 1254 (10 OR 30%), Method: PREINCUBATION): inactive; negative | mutagenic call (Test System: AMES SALMONELLA TYPHIMURIUM, Strain/Indicator: TA98, Metabolic Activation: RAT, LIVER, S-9, AROCLOR 1254 (10%), Method: PREINCUBATION): inactive; negative | mutagenic call (Test System: AMES SALMONELLA TYPHIMURIUM, Strain/Indicator: TA98, Metabolic Activation: RAT, LIVER, S-9, AROCLOR 1254 (30%), Method: PREINCUBATION): inactive; negative | mutagenic call (Test System: AMES SALMONELLA TYPHIMURIUM, Strain/Indicator: TA100, Metabolic Activation: HAMSTER, LIVER, S-9, AROCLOR 1254 (10 OR 30%), Method: PREINCUBATION): inactive; negative | mutagenic call (Test System: AMES SALMONELLA TYPHIMURIUM, Strain/Indicator: TA100, Metabolic Activation: NONE, Method: PREINCUBATION): inactive; negative | mutagenic call (Test System: AMES SALMONELLA TYPHIMURIUM, Strain/Indicator: TA100, Metabolic Activation: RAT, LIVER, S-9, AROCLOR 1254 (10%), Method: PREINCUBATION): inactive; negative | mutagenic call (Test System: AMES SALMONELLA TYPHIMURIUM, Strain/Indicator: TA100, Metabolic Activation: RAT, LIVER, S-9, AROCLOR 1254 (30%), Method: PREINCUBATION): inactive; negative | mutagenic call (Test System: AMES SALMONELLA TYPHIMURIUM, Strain/Indicator: TA1535, Metabolic Activation: HAMSTER, LIVER, S-9, AROCLOR 1254 (10 OR 30%), Method: PREINCUBATION): inactive; negative | mutagenic call (Test System: AMES SALMONELLA TYPHIMURIUM, Strain/Indicator: TA1535, Metabolic Activation: NONE, Method: PREINCUBATION): inactive; negative | mutagenic call (Test System: AMES SALMONELLA TYPHIMURIUM, Strain/Indicator: TA1535, Metabolic Activation: RAT, LIVER, S-9, AROCLOR 1254 (10 OR 30%), Method: PREINCUBATION): inactive; negative | mutagenic call (Test System: AMES SALMONELLA TYPHIMURIUM, Strain/Indicator: TA1537, Metabolic Activation: HAMSTER, LIVER, S-9, AROCLOR 1254 (30%), Method: PREINCUBATION): inactive; negative | mutagenic call (Test System: AMES SALMONELLA TYPHIMURIUM, Strain/Indicator: TA1537, Metabolic Activation: NONE, Method: PREINCUBATION): inactive; negative | mutagenic call (Test System: AMES SALMONELLA TYPHIMURIUM, Strain/Indicator: TA1537, Metabolic Activation: RAT, LIVER, S-9, AROCLOR 1254 (30%), Method: PREINCUBATION): inactive; negative

OC1c2cccc3c2[C@]2(O[C@H]2C1O)c1ccccc1-3 (stereo partly specified)
mutagenic call (Test System: AMES SALMONELLA TYPHIMURIUM, Strain/Indicator: TM677, Metabolic Activation: NONE, Method: PREINCUBATION): active; positive | mutagenic call (Test System: AMES SALMONELLA TYPHIMURIUM, Strain/Indicator: TM677, Metabolic Activation: RAT, LIVER, POSTMITOCHONDRIAL SUPERNATANT, AROCLOR 1254, Method: PREINCUBATION): active; positive

C[C@@H]1C[C@@]2(O[C@H]2C)C(=O)O[C@@H]2CCN3CC=C(COC(=O)[C@]1(C)O)[C@H]23
mutagenic call (Test System: UDS RAT HEPATOCYTES, Strain/Indicator: THY INCORP, Metabolic Activation: NONE, Method: AUTORADIOGRAPHY): active; positive

CCOC(=O)NC
mutagenic call (Test System: MOUSE LYMPHOMA, Strain/Indicator: L5178Y (TK+/TK-), Metabolic Activation: NONE, Method: SUSPENSION/PLATE): inactive; negative | mutagenic call (Test System: MOUSE LYMPHOMA, Strain/Indicator: L5178Y (TK+/TK-), Metabolic Activation: RAT, LIVER, S-9, AROCLOR 1254, Method: SUSPENSION/PLATE): active; positive
